Results taken from US20180186742A1, “PICOLINAMIDES AS FUNGICIDES” (Dow AgroSciences LLC, priority 2017, published 2018).
Read-outs that look alike come from different tables or passages of the source.

Tests used:
Type in all cases: in vivo
[1] = test system: Uncinula necator; assay: Grape powdery mildew (UNCINE), disease control on grape seedlings; settings: Erysiphe necator, 24 h, 1DP (1 Day Protectant) test at 100 ppm
Procedure: Technical grades of materials were dissolved in acetone, which were then mixed with nine volumes of water containing 110 ppm Triton X-100. The fungicide solutions were applied onto wheat seedlings using an automated booth sprayer to run-off. All sprayed plants were allowed to air dry prior to further handling. All fungicides were evaluated using the aforementioned method for their activity vs. all target diseases, unless stated otherwise. Wheat leaf blotch and brown rust activity were also evaluated using track spray applications, in which case the fungicides were formulated as EC formulations, containing 0.1% Trycol 5941 in the spray solutions. Grape seedlings (variety Carignane) were grown in soil-less Metro mix, with one plant per pot, and used in the test when approximately 1 month old. Plants were inoculated 24 hr after fungicide treatment by shaking spores from infected leaves over test plants. Plants were maintained in a greenhouse set at 20° C. until disease was fully developed. Fungicide formulation, application and disease assessment on sprayed leaves followed the procedures as described in the Example A.

[2] = test system: Parastagonospora nodorum; assay: Wheat glume blotch (LEPTNO), disease control on wheat seedlings; settings: 1DP test at 100 ppm, read-out: LEPTNO disease control rating
Procedure: Technical grades of materials were dissolved in acetone, which were then mixed with nine volumes of water containing 110 ppm Triton X-100. The fungicide solutions were applied onto wheat seedlings using an automated booth sprayer to run-off. All sprayed plants were allowed to air dry prior to further handling. All fungicides were evaluated using the aforementioned method for their activity vs. all target diseases, unless stated otherwise. Wheat leaf blotch and brown rust activity were also evaluated using track spray applications, in which case the fungicides were formulated as EC formulations, containing 0.1% Trycol 5941 in the spray solutions. Wheat plants (variety Yuma) were grown from seed in a greenhouse in 50% mineral soil/50% soil-less Metro mix until the first leaf was fully emerged, with 7-10 seedlings per pot. These plants were inoculated with an aqueous spore suspension of Parastagonospora nodorum 24 hr after fungicide treatments. After inoculation the plants were kept in 100% relative humidity (one day in a dark dew chamber followed by two days in a lighted dew chamber at 20° C.) to permit spores to germinate and infect the leaf. The plants were then transferred to a greenhouse set at 20° C. for disease to develop. Fungicide formulation, application and disease assessment followed the procedures as described in the Example A.

[3] = test system: Glomerella lagenarium; Anamorph: Colletotrichum lagenarium; assay: Cucumber anthracnose (COLLLA), disease control on cucumber seedlings; settings: Colletotrichum orbiculare, 1DP test at 100 ppm, read-out: COLLLA disease control rating
Procedure: Technical grades of materials were dissolved in acetone, which were then mixed with nine volumes of water containing 110 ppm Triton X-100. The fungicide solutions were applied onto wheat seedlings using an automated booth sprayer to run-off. All sprayed plants were allowed to air dry prior to further handling. All fungicides were evaluated using the aforementioned method for their activity vs. all target diseases, unless stated otherwise. Wheat leaf blotch and brown rust activity were also evaluated using track spray applications, in which case the fungicides were formulated as EC formulations, containing 0.1% Trycol 5941 in the spray solutions. Cucumber seedlings (variety Bush Pickle) were propagated in soil-less Metro mix, with each pot having one plant, and used in the test when 12 to 14 days old. Test plants were inoculated with an aqueous spore suspension of Colletotrichum lagenarium 24 hr after fungicide treatments. After inoculation the plants were kept in a dew room at 22° C. with 100% relative humidity for 48 hr to permit spores to germinate and infect the leaf. The plants were then transferred to a growth room set at 22° C. for disease to develop. Fungicide formulation, application and disease assessment on the sprayed leaves followed the procedures as described in the Example A.

[4] = test system: Phakopsora pachyrhizi; assay: Asian soybean rust (PHAKPA), disease control on soybean seedlings; settings: High volume application at 25 ppm
Summary of the method: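 Two-week-old Williams 82 soybean seedlings were sprayed to run-off with compound in acetone/water (1:9) containing 0.011% Tween 20. Inoculation was 3 days before (curative) or 1 day after (protectant) treatment, followed by 24 h dark dew at 22 °C, 100% RH, then 23 °C; disease severity scored on sprayed leaves.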

[5] = test system: Pseudoperonospora cubensis; assay: Cucumber downy mildew (PSPECU), disease control on cucumber seedlings; settings: 24 h, 1DP (1 Day Protectant) test at 100 ppm
Procedure: Technical grades of materials were dissolved in acetone, which were then mixed with nine volumes of water containing 110 ppm Triton X-100. The fungicide solutions were applied onto wheat seedlings using an automated booth sprayer to run-off. All sprayed plants were allowed to air dry prior to further handling. All fungicides were evaluated using the aforementioned method for their activity vs. all target diseases, unless stated otherwise. Wheat leaf blotch and brown rust activity were also evaluated using track spray applications, in which case the fungicides were formulated as EC formulations, containing 0.1% Trycol 5941 in the spray solutions. Cucumber seedlings (variety Bush Pickle) were grown in soil-less Metro mix, with one plant per pot, and used in the test when 12 to 14 days old. Plants were inoculated with a spore suspension 24 hr following fungicide treatments. Test plants were inoculated with an aqueous spore suspension of Pseudoperonospora cubensis 24 hr after fungicide treatments. After inoculation the plants were kept in a dew room at 22° C. with 100% relative humidity for 24 hr to permit spores to germinate and infect the leaf. The plants were then transferred to a greenhouse set at 20° C. until disease was fully expressed. Fungicide formulation, application and disease assessment on the sprayed leaves followed the procedures as described in the Example A.

[6] = 24 h, 1 Day Protectant, read-out: PHAKPA 1DP disease control rating
[7] = 72 h, 3 Day Curative, read-out: PHAKPA 3DC disease control rating

| Structure (SMILES) | pest or weed control at 100 ppm [1] [%] | pest or weed control at 100 ppm [2] [%] | pest or weed control at 100 ppm [3] [%] | pest or weed control at 25 ppm [4, 6] [%] | pest or weed control at 25 ppm [4, 7] [%] | pest or weed control at 100 ppm [5] [%] |
| --- | --- | --- | --- | --- | --- | --- |
| COc1ccnc(C(=O)N[C@@H](C)C(=O)O[C@@H](C)[C@H](c2ccccc2C)C(C)C)c1OC(C)=O [Compound 364] | > 80 | < 80 | > 80 | > 80 | > 80 | < 80 |
| CCC(CC)[C@@H](c1ccc(F)cc1C)[C@H](C)OC(=O)[C@H](C)NC(=O)c1nccc(OC)c1OC(C)=O [Compound 187] | > 80 | < 80 | > 80 | > 80 | < 80 | < 0 |
| COc1ccnc(C(=S)N[C@@H](C)C(=O)O[C@@H](C)[C@H](c2ccc(F)cc2C)C(C)C)c1OC(C)=O [Compound 219] | > 80 | > 80 | < 80 | > 80 | > 80 | < 80 |
| COc1ccnc(C(=O)N[C@@H](C)C(=O)O[C@@H](C)[C@H](c2ccc(F)cc2C)C(C)C)c1OC(=O)C(C)C [Compound 216] | > 80 | > 80 | < 80 | > 80 | > 80 | < 80 |
| CCC(C)C(=O)Oc1c(OC)ccnc1C(=O)N[C@@H](C)C(=O)O[C@@H](C)[C@H](c1ccc(F)cc1C)C(C)C (stereo partly drawn) [Compound 355] | > 80 | > 80 | > 80 | > 80 | > 80 | < 80 |
| CCOC(=O)Oc1c(OC)ccnc1C(=O)N(C(=O)OCC)[C@@H](C)C(=O)O[C@@H](C)[C@H](c1ccc(F)cc1C)C(C)C [Compound 371] | > 80 | > 80 | > 80 | > 80 | > 80 | < 80 |
| COc1ccnc(C(=O)N[C@@H](C)C(=O)O[C@@H](C)[C@H](c2ccc(F)cc2C)C(C)C)c1OC(=O)OC(C)C [Compound 373] | > 80 | > 80 | > 80 | > 80 | > 80 | < 80 |
| COc1ccnc2c(=O)n([C@@H](C)C(=O)O[C@@H](C)[C@H](c3ccc(F)cc3C)C(C)C)c(=O)oc12 [Compound 217] | > 80 | > 80 | < 0 | > 80 | > 80 | < 0 |
| COCCC(=O)Oc1c(OC)ccnc1C(=O)N[C@@H](C)C(=O)O[C@@H](C)[C@H](c1ccc(F)cc1C)C(C)C [Compound 220] | > 80 | > 80 | < 80 | > 80 | > 80 | < 0 |
